Laboratory results: ChEMBL document CHEMBL5120865, “Exploration of 6-methyl-7-(Hetero)Aryl-7-Deazapurine ribonucleosides as antileishmanial agents” (Eur J Med Chem, 2022)
pEC50: −log10 of the molar value.

What was measured:
Leishmania infantum = experiment: Antileishmanial activity against intracellular Leishmania infantum MHOM/MA(BE)/67 ITMAP263 amastigotes infected in Swiss mouse peritoneal macrophage assessed as inhibition of parasite growth measured after 5 days by geimsa staining based microscopic analysis; assay type: functional, organism-based; settings: MHOM/MA(BE)/67 ITMAP263, Peritoneal macrophage, 120 h
[1] = Cytotoxicity against Swiss mouse peritoneal macrophages assessed as reduction in cell viability measured after 5 days by microscopic analysis; assay type: toxicity, cell-based, Peritoneal macrophage; settings: time 5 day
[2] = Cytotoxicity against human MRC5 cells assessed as reduction in cell viability incubated for 3 days by resazurin dye based fluorescence analysis; assay type: toxicity; settings: time 3 day
[3] = Selectivity index, ratio of CC50 for Cytotoxicity against Swiss mouse peritoneal macrophages to EC50 for intracellular Leishmania infantum MHOM/MA(BE)/67 ITMAP263 amastigotes infected in Swiss mouse peritoneal macrophages; assay type: toxicity, cell-based; settings: read-out: Ratio CC50/EC50
Trypanosoma cruzi = experiment: Antitrypanosomal activity against nifurtimox-sensitive Tulahuen CL2 amastigotes expressing beta galactosidase infected in human MRC5 cells assessed as inhibition of parasite growth using chlorophenol red beta-D-galactopyranoside as substrate and measured after 7 days by spectrophotometric analysis; assay type: functional, organism-based; settings: Tulahuen CL2, MRC5, 168 h
[4] = Selectivity index, ratio of CC50 for cytotoxicity against human MRC5 cells to EC50 for Trypanosoma cruzi Tulahuen CL2 amastigotes expressing beta galactosidase infected in human MRC5 cells; assay type: toxicity, cell-based; settings: read-out: Ratio CC50/EC50

Compound | pEC50 (Leishmania infantum) | CC50 at 120 h [1] [µM] | CC50 at 72 h [2] [µM] | selectivity ratio [3] | pEC50 (Trypanosoma cruzi; read-out: EC50) | selectivity ratio [4] | pEC50 (Trypanosoma cruzi)
Cc1ncnc2c1c(-c1ccoc1)cn2[C@@H]1O[C@H](CO)[C@@H](O)[C@H]1O | < 4.19 | > 64 | > 64 | – | – | – | –
Cc1ncnc2c1c(-c1cccs1)cn2[C@@H]1O[C@H](CO)[C@@H](O)[C@H]1O | 4.90 | 32 | – | 2.5 | – | – | –
Cc1ncnc2c1c(-c1cnn(C)c1)cn2[C@@H]1O[C@H](CO)[C@@H](O)[C@H]1O | 5.10 | > 64 | > 64 | > 8 | – | – | –
Cc1ncnc2c1c(-c1cccc3c1oc1ccccc13)cn2[C@@H]1O[C@H](CO)[C@@H](O)[C@H]1O | 4.29 | > 64 | 12.7 | > 1.2 | – | – | –
Cc1ncnc2c1c(-c1ccc(C(F)(F)F)cc1)cn2[C@@H]1O[C@H](CO)[C@@H](O)[C@H]1O | 4.95 | > 64 | – | > 5.6 | – | – | –
Cc1ncnc2c1c(-c1ccc(Cl)cn1)cn2[C@@H]1O[C@H](CO)[C@@H](O)[C@H]1O | 6.40 | > 64 | 26.3 | > 160 | 6.31 | 53 | –
COc1cc(-c2cn([C@@H]3O[C@H](CO)[C@@H](O)[C@H]3O)c3ncnc(C)c23)ccc1Cl | 5.06 | > 64 | – | > 7.3 | – | – | –
Cc1ncnc2c1c(-c1ccccc1[N+](=O)[O-])cn2[C@@H]1O[C@H](CO)[C@@H](O)[C@H]1O | < 4.19 | > 64 | > 64 | – | – | – | –
Cc1ncnc2c1c(-c1ccccn1)cn2[C@@H]1O[C@H](CO)[C@@H](O)[C@H]1O | 5.64 | > 64 | > 64 | > 27 | 5.80 | > 39 | –
Cc1ncnc2c1c(-c1cccc3c1N=CC3)cn2[C@@H]1O[C@H](CO)[C@@H](O)[C@H]1O | 5.68 | > 64 | > 64 | > 30 | 5.48 | > 19 | –
Cc1ncnc2c1c(-c1ccccc1N)cn2[C@@H]1O[C@H](CO)[C@@H](O)[C@H]1O | < 4.19 | > 64 | > 64 | – | – | – | –
Cc1ncnc2c1c(-c1ccc(Cl)cc1)cn2[C@@H]1O[C@H](CO)[C@@H](O)[C@H]1O | 4.79 | > 64 | – | > 3.5 | – | – | –
Cc1ncnc2c1c(-c1cncnc1)cn2[C@@H]1O[C@H](CO)[C@@H](O)[C@H]1O | 5.19 | > 64 | > 64 | > 9.9 | 5.14 | > 8.8 | –
Cc1ncnc2c1c(-c1cc[nH]n1)cn2[C@@H]1O[C@H](CO)[C@@H](O)[C@H]1O | 5.10 | > 64 | 27.9 | > 8 | – | – | –
Cc1ncnc2c1c(-c1ccccc1Cl)cn2[C@@H]1O[C@H](CO)[C@@H](O)[C@H]1O | 4.69 | > 64 | > 64 | > 3.1 | – | – | –
Cc1ncnc2c1c(-c1cc3ccccc3[nH]1)cn2[C@@H]1O[C@H](CO)[C@@H](O)[C@H]1O | 5.77 | > 64 | 14.8 | > 36 | 6.21 | 24 | –
COc1ccccc1-c1cn([C@@H]2O[C@H](CO)[C@@H](O)[C@H]2O)c2ncnc(C)c12 | 4.68 | > 64 | > 64 | > 3 | – | – | –
Cc1ncnc2c1c(-c1ccccc1F)cn2[C@@H]1O[C@H](CO)[C@@H](O)[C@H]1O | < 4.19 | > 64 | > 64 | – | – | – | –
Cc1ncnc2c1c(-c1ccc(S(C)(=O)=O)cc1)cn2[C@@H]1O[C@H](CO)[C@@H](O)[C@H]1O | 5.17 | > 64 | – | > 9.5 | – | – | –
Cc1ncnc2c1c(-c1cc3ccccc3o1)cn2[C@@H]1O[C@H](CO)[C@@H](O)[C@H]1O | 4.69 | 32 | 45.8 | 1.58 | – | – | –
Cc1ncnc2c1c(-c1ccc[nH]1)cn2[C@@H]1O[C@H](CO)[C@@H](O)[C@H]1O | 6.46 | 32 | 12.9 | 91.4 | 6.17 | 19 | –
Cc1ncnc2c1c(/C=C/c1ccccn1)cn2[C@@H]1O[C@H](CO)[C@@H](O)[C@H]1O | 4.72 | > 64 | > 64 | > 3.37 | – | – | –

Compound | pEC50 (Leishmania infantum) | CC50 at 120 h [1] [µM] | CC50 at 72 h [2] [µM] | selectivity ratio [3] | pEC50 (Trypanosoma cruzi; read-out: EC50) | selectivity ratio [4] | pEC50 (Trypanosoma cruzi)
Cc1ncnc2c1c(-c1ccc(N)cc1)cn2[C@@H]1O[C@H](CO)[C@@H](O)[C@H]1O | 5.17 | > 64 | – | > 9.5 | – | – | –
Cc1ncnc2c1c(-c1cc3ccccc3cn1)cn2[C@@H]1O[C@H](CO)[C@@H](O)[C@H]1O | < 4.19 | > 64 | > 64 | – | – | – | –
Cc1ncnc2c1c(-c1ccc(Cl)c(F)c1)cn2[C@@H]1O[C@H](CO)[C@@H](O)[C@H]1O | 5.10 | > 64 | – | > 8 | – | – | –
Cc1ncnc2c1c(-c1ccncc1)cn2[C@@H]1O[C@H](CO)[C@@H](O)[C@H]1O | < 4.19 | > 64 | > 64 | – | – | – | –
O=C(Cn1ccnc1[N+](=O)[O-])NCc1ccccc1 [BENZNIDAZOLE] | – | – | – | – | – | – | 5.64
Cc1ncnc2c1c(Sc1ccccc1)cn2[C@@H]1O[C@H](CO)[C@@H](O)[C@H]1O | < 4.19 | > 64 | > 64 | – | – | – | –
Oc1ncnc2[nH]ncc12 [ALLOPURINOL] | 5.46 | > 64 | > 64 | > 18 | – | – | –
Cc1ncnc2c1c(-c1cnccn1)cn2[C@@H]1O[C@H](CO)[C@@H](O)[C@H]1O | 5.00 | > 64 | > 64 | > 6.3 | – | – | –
Cc1ncnc2c1c(C1=CCOCC1)cn2[C@@H]1O[C@H](CO)[C@@H](O)[C@H]1O | 4.61 | > 64 | – | – | – | – | –
Cc1ncnc2c1c(-c1cccc(Cl)n1)cn2[C@@H]1O[C@H](CO)[C@@H](O)[C@H]1O | 4.85 | > 64 | > 64 | > 4.51 | – | – | –
Cc1ncnc2c1c(-c1cccc(F)n1)cn2[C@@H]1O[C@H](CO)[C@@H](O)[C@H]1O | < 4.19 | > 64 | > 64 | – | – | – | –
Cc1ncnc2c1c(-c1nccs1)cn2[C@@H]1O[C@H](CO)[C@@H](O)[C@H]1O | 5.68 | 32 | 6.06 | 15.5 | 6.18 | 9.2 | –
Cc1ncnc2c1c(-c1ccc3ccccc3n1)cn2[C@@H]1O[C@H](CO)[C@@H](O)[C@H]1O | < 4.19 | > 64 | > 64 | – | – | – | –
Cc1ncnc2c1c(-c1ccc(Cl)nc1)cn2[C@@H]1O[C@H](CO)[C@@H](O)[C@H]1O | < 4.19 | > 64 | > 64 | – | – | – | –
Cc1ncnc2c1c(-c1cccc3ccn(C)c13)cn2[C@@H]1O[C@H](CO)[C@@H](O)[C@H]1O | < 4.19 | > 64 | > 64 | – | – | – | –
CSc1ccccc1-c1cn([C@@H]2O[C@H](CO)[C@@H](O)[C@H]2O)c2ncnc(C)c12 | < 4.19 | > 64 | > 64 | – | – | – | –
Cc1ncnc2c1c(-c1ccsc1)cn2[C@@H]1O[C@H](CO)[C@@H](O)[C@H]1O | < 4.19 | > 64 | > 64 | – | – | – | –
Cc1ncnc2c1c(CCc1ccccn1)cn2[C@@H]1O[C@H](CO)[C@@H](O)[C@H]1O | < 4.19 | > 64 | > 64 | – | – | – | –
Cc1ncnc2c1c(-c1cccnc1)cn2[C@@H]1O[C@H](CO)[C@@H](O)[C@H]1O | 4.65 | > 64 | > 64 | > 2.8 | – | – | –
COc1ccnc(-c2cn([C@@H]3O[C@H](CO)[C@@H](O)[C@H]3O)c3ncnc(C)c23)c1 | < 4.19 | > 64 | > 64 | – | – | – | –
Cc1ncnc2c1c(-c1cccc3cccnc13)cn2[C@@H]1O[C@H](CO)[C@@H](O)[C@H]1O | 5.43 | > 64 | > 64 | > 17 | 5.02 | > 6.7 | –
Cc1ncnc2c1c(-c1ncccn1)cn2[C@@H]1O[C@H](CO)[C@@H](O)[C@H]1O | 5.09 | > 64 | > 64 | > 7.8 | 5.23 | > 10 | –
